Where “and” joins values, the source holds several entries; their conditions need not be identical. Equal values may be shown once. Entries after “also recorded” stand apart in the source; their conditions may differ. Where a name gives a salt, the structure may show the parent alone. Values belong to the molecule of their own block, whether it stands above or below them.
Assays:
[1] = In vitro diffusion of [^14C]-Terbinafine at the nail bed of drilled human nails, quantitative whole body autoradiography (QWBA); type: in vitro ADME; details: for diffusion of radioactivity between the holes: 2 mm and 4 mm spaced holes
Excerpt: Four frozen human cadaver fingertips with nails were used. Each fingernail contained two series of three holes, one set at 2 mm apart and the other set at 4 mm apart.
The samples were placed in a Transwell plate containing 3 milliLiters (mL) of culture medium. Three of the nails received an application of the radiolabeled test item during one hour; one received an application of a non-radiolabeled test item. A finite dose (5 microLiters (μL)) of formulation was applied on the nail surface. Incubation was conducted for 1 hour at 37° C., 5% CO2 and saturated hygrometry. At the end of the incubation, excess of formulation was removed from the nail surface.
Each sample was frozen onto a support using adapted QWBA procedures. Sections were then taken through each fingernail onto tape and were analyzed using QWBA methods to determine the diffusion of radioactivity at the nail bed level from each site of administration. A 3-dimensional graph of the concentration of radioactivity was then created to visualize the diffusion through the nail matrix.
In vitro diffusion of [^14C]-Terbinafine on nail beds was studied on drilled human hand nails. Four samples were used through the study and were drilled as follows: • On each sample: 3 holes of 0.6 mm diameter, with 2 mm distance between each hole and 3 holes of 0.6 mm diameter, with 4 mm distance between each hole • 3 samples were treated with 10% [^14C]-Terbinafine in amphoteric solution One sample was treated with placebo • Treatment duration: 1 hour • 5 μL of test item were applied on each nail • Incubation at 37° C., 5% CO2 and saturated hygrometry during 1 hour • At the end of the incubation period, the excess of test item was removed and the samples were stored at −80° C. before processing for autoradiography analysis.
(§1) Three of the nails received an application of the radiolabeled test item, whilst the other nail received an application of the unlabelled test item as follows: • Samples A, B and C (Treated samples): 5 μL of the formulation containing 10% [^14C]-Terbinafine were applied on the surface of each of the nail samples. • Sample D (Control sample): 5 μL of the formulation containing 10% Terbinafine were applied on the surface of the nail sample.
(§2) The culture plate containing the nail samples was placed in a culture incubator kept at 37° C., 5% CO2 and saturated hygrometry. The duration of the nail treatment was 1 hour.
At the end of the treatment period, the excess of the formulation remaining on the nail was wiped off using a dried cotton swab and five successive cotton swabs wetted with absolute ethanol. These cotton swabs were discarded. The nail samples were then stored at −80° C., and shipped frozen for analysis by autoradiography.
The samples (four human fingernails) were received deeply frozen on solid CO2 and immediately transferred to storage in a freezer set to maintain a temperature of −80° C. A supporting block was prepared to support each sample during sectioning. Specifically, a mould was filled with 2% carboxymethylcellulose solution and frozen in a mixture of dry ice and hexane. The frozen finger was fixed in a horizontal position on a cork disc using a cryo-matrix and the disc was then fixed to the carboxymethylcellulose block with a further cryo-matrix. The finger was embedded so that the nail was facing to the side and to ensure that each series of holes was as horizontal as possible (dependant on the alignment of the drilled holes). A further cryomatrix was added around each finger to provide additional support during sectioning. The frozen blocks were stored in a freezer set to maintain a temperature of −20° C. prior to and following sectioning.
Each nail was sectioned through until immediately adjacent to the uppermost hole in the series. Horizontal sections (approximately 30 μm thick) were then taken through each fingernail onto adhesive tape. […]

[2] = Radioactivity level in the culture medium (receiver chamber) at the end of the treatment period, liquid scintillation counting; type: in vitro ADME, human; details: for radioactivity in culture medium, mean / radioactivity in culture medium, whole receiver chamber: 1 hour treatment; for radioactivity in culture medium, single counts: 5 μL of 10% formulation on drilled nail, 1 hour, 37° C., triplicate counts, hydrochloride; for Applied dose (%) found in culture medium: applied dose 1106175 dpm
Method: Each nail sample was then placed on a cell culture insert. Each insert was introduced into a receiver chamber of a 6-well culture plate. The receiver chamber was filled with 3 mL HHBSS containing antibiotics (2% penicilline-streptomycine).
as §1, §2
In order to check the specificity of the incubation system (no radioactive contamination due to leakage of applied formulation through the insert), the radioactivity level was measured in the culture medium at the end of the treatment period. Each receiver chamber medium was controlled in triplicate by liquid scintillation counting as follows: 100 μL of culture medium was directly counted by liquid scintillation counting using 10 mL of HIONIC FLUOR available from Perkin Elmer. The results presented in the table below show a very low radioactivity level in culture medium of sample A and sample C. The radioactivity level only represented 1.6% of the applied dose in sample A and 0.1% of the applied dose in sample C. These radioactivity levels were considered negligible and could not compromise the results of the study.

Structure (SMILES): CN(C/C=C/C#CC(C)(C)C)Cc1cccc2ccccc12 [Terbinafine]
- localization of diffusion (plots of FIGS. 4, 6, 8, 10, 12, 14) ([1]; Nails A to C, 2 mm and 4 mm hole sets): particularly localized to the holes in the nail

- radioactive signal on the surface of nail plates ([1]; overall conclusion): marked radioactive signal
- radioactivity in culture medium, mean ([2]; Mean sample A): 575.7 dpm/100 μL
- radioactivity in culture medium, whole receiver chamber ([2]; Mean sample A): 17270 dpm/3 mL
- radioactivity in culture medium, whole receiver chamber ([2]; Mean sample B): BLQ
- radioactivity in culture medium, mean ([2]; Mean sample B, LOQ 54 dpm): 46.3 dpm/100 μL
- radioactivity in culture medium, whole receiver chamber ([2]; Mean sample C): 1640 dpm/3 mL
- radioactivity in culture medium, mean ([2]; Mean sample C, LOQ 54 dpm): 54.7 dpm/100 μL
- Applied dose (%) found in culture medium ([2]; Sample A): 1.6%
- Applied dose (%) found in culture medium ([2]; Sample B): 0%
- Applied dose (%) found in culture medium ([2]; Sample C): 0.1%
Structure (SMILES): CN(C/C=C/C#CC(C)(C)C)Cc1cccc2ccccc12 [[^14C]-Terbinafine, Terbinafine hydrochloride]
- diffusion of radioactivity between the holes ([1]; Nail A, 1 hour): little diffusion of radioactivity between the holes
- concentrations of radioactivity between the holes ([1]; Nail A, 4 mm spacing, 1 hour): decrease to background levels between the holes
- diffusion of radioactivity between the holes ([1]; Nail B, 1 hour): little diffusion of radioactivity between the holes
- concentrations of radioactivity between the holes ([1]; Nail B, 4 mm spacing, 1 hour): decrease to background levels between the holes
- diffusion of radioactivity between the holes ([1]; Nail C, 1 hour, holes did not receive a full application): little diffusion of radioactivity between the holes
- concentrations of radioactivity between the holes ([1]; Nail C, 4 mm spacing, 1 hour): decrease to background levels between the holes
- diffusion at the nail bed level around the holes ([1]; overall conclusion): diffusion of the radiolabeled drug at the nail bed level around the holes
- diffusion of radioactivity between the holes, 4 mm versus 2 mm spacing ([1]; overall conclusion, Nails A to C, hydrochloride): little diffusion of radioactivity between the 4 mm spaced holes compared to the 2 mm spaced holes; also recorded: little diffusion of radioactivity between the 4 mm spacing holes compared to the 2 mm spacing holes
- concentrations of radioactivity between the holes ([1]; overall conclusion, 4 mm spaced holes, hydrochloride): decreased to background radiation levels between the holes; also recorded: decrease to background levels between the holes
- radioactivity in culture medium, single counts ([2]; Sample A): 494 dpm/100 μL and 621 dpm/100 μL and 612 dpm/100 μL
- radioactivity in culture medium, single counts ([2]; Sample B): 48 dpm/100 μL and 49 dpm/100 μL and 42 dpm/100 μL
- radioactivity in culture medium, single counts ([2]; Sample C): 49 dpm/100 μL and 52 dpm/100 μL and 63 dpm/100 μL

— US20150119825A1, “OPTIMIZING UNGUAL TREATMENT BY QUANTITATIVE AUTORADIOGRAPHY” (GALDERMA RESEARCH & DEVELOPMENT, priority 2012, published 2015)
